Laboratory results: paper PMC11178805, “Ligand-based design of [^18F]OXD-2314 for PET imaging in non-Alzheimer’s disease tauopathies” (Nature Communications, 2024)
Several values for one entry are separate records, joined by “and”; a condition that tells them apart may be missing. Equal entries are not always repeated.

Tests used:
5-lipoxygenase = target: T1, 5-lipoxygenase (Homo sapiens, UniProt P09917); test: In vitro pharmacology enzyme screen (Eurofins): 5-lipoxygenase; format: biochemical
T1 construct: purchased Eurofins, France (contract screening)
T1 sequence (P09917 1-674): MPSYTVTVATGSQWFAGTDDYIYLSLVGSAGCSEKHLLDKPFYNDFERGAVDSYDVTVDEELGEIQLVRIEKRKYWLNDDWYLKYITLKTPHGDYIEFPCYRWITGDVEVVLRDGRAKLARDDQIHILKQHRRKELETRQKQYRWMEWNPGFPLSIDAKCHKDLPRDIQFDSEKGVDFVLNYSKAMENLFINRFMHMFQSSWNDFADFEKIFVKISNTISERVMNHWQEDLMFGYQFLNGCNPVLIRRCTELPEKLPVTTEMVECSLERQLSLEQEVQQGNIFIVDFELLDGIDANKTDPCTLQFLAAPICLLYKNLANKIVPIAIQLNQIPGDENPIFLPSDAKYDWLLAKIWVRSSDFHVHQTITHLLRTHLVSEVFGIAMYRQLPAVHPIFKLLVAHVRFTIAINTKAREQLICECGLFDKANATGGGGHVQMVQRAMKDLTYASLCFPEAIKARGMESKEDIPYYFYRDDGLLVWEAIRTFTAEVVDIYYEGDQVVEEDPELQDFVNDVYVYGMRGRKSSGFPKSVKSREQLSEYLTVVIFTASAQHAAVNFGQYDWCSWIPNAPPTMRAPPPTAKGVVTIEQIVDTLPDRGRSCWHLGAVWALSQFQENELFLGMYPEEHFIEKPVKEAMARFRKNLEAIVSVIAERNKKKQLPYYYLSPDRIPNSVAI
Procedure: OXD-2314 binding to CNS receptors was calculated as a percentage of inhibition of a receptor-specific radioligand. Enzyme inhibition was calculated as the percent inhibition of baseline enzyme activity where inhibition above 50% was considered significant. […] Norepinephrine transports are expressed in low concentration throughout the brain and its relative concentration are not affected by aging or neurodegeneration. 5-lipoxygenase may be overexpressed in aging brain and play some role in neurodegeneration, which could be necessary to further investigate in vivo[42]. Off-target binding to monoamine oxidase A and B (MAO-A and MAO-B) has been seen with some tau PET radiotracers[43],[44].

[1] = Radiometabolite analysis in rat plasma and brain homogenates; format: in vivo, rat (Sprague-Dawley); details: for parent fraction of radioactivity in brain homogenates: rats
Procedure: Radiometabolite analysis was performed ex vivo in plasma and brain homogenates from rats (n = 5, 3 female and 2 male) at 30 and 60 min after radiotracer injection (Figs. S11–S16). […] The parent fraction in plasma was 6% at 30 min and 5% at 60 min in the two male rats, respectively, and 32% at 30 min (n = 1) and 18% and 17% at 60 min (n = 2) in the female rats. Different rates of metabolism between male and female rats may have contributed to the differences in kinetics observed in the brain PET scans. No lipophilic radiometabolites were detected in plasma or brain. Parent [^18F]OXD-2314 accounted for 82 ± 7% (n = 2) and 80 ± 5% (n = 3) of the radioactivity in rat brain homogenates by 30 and 60 min post-injection of the radiotracer, respectively. The rats were not perfused with saline immediately prior to sacrifice, so that radiometabolites in blood were trapped in the brain and likely accounted for a portion of the polar radiometabolites found in brain, as cerebral blood volume in rats is approximately 4–5% of total brain volume.
Five adult Sprague-Dawley rats (3 F/2 M, 378 ± 51 g) were used in [^18F]OXD-2314 radiometabolite analysis. Following injection of 46.7 ± 3.3 MBq of the radiotracer through a tail-vein catheter, rats were sacrificed by decapitation 30 min (n = 2) and 60 min (n = 3) post-injection. Trunk blood was collected and centrifuged for 5 min at 2500 × g, and the plasma was collected. Brains were quickly extracted and homogenized with a BeadBug™ (Benchmark Scientific; Sayreville, NJ, USA) in 3.2 mL acetonitrile together with 1 μg of unlabeled parent compound, then 1.6 mL deionized H2O was added and mixed. The homogenate was centrifuged at 12,000 × g for 5 min, and the supernatant was collected. Parent radiotracer was separated from metabolites in plasma and brain extract by column-switching HPLC in a mobile phase of 40/60 CH3CN/100 mM NH4HCO2 (v/v) and analyzed with PowerChrom 2.6.15 (eDAQ).

COC1CCCN(c2ccc(-c3cc4cc(O)ccc4[nH]3)c(F)n2)C1 (centres unmarked) [OXD-2314, 2-(2-fluoro-6-(3-methoxypiperidin-1-yl)pyridin-3-yl)-1H-indol-5-ol]
inhibition at 10 µM (5-lipoxygenase): 50.1%

CO[C@H]1CCCN(c2ccc(-c3cc4cc(O)ccc4[nH]3)c([18F])n2)C1 [[^18F]OXD-2314]
% Parent Brain ([1]; female rat, 30 min): 77.11%
parent fraction in plasma ([1]; female rat, 30 min post-injection): 32% and 32.43%
% Parent Brain ([1]; female rats, 60 min): 81.01% and 83.78%
parent fraction in plasma ([1]; female rats, 60 min post-injection): 18% and 17% and 17.66% and 17.32%
% Parent Brain ([1]; male rat, 30 min): 87.09%
parent fraction in plasma ([1]; male rat, 30 min post-injection): 6% and 5.79%
% Parent Brain ([1]; male rat, 60 min): 74.16%
parent fraction in plasma ([1]; male rat, 60 min post-injection): 5%
parent fraction of radioactivity in brain homogenates ([1]; 30 min post-injection, n = 2): 82 ± 7%
parent fraction of radioactivity in brain homogenates ([1]; 60 min post-injection, n = 3): 80 ± 5%
